Measured values: PubChem BioAssay (NCI)
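Five compound concentrations were applied to cells in 96-well plates for 48 hours; endpoints were derived by simple linear interpolation of the resulting dose-response curve. TGI is the concentration that stops growth completely.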

Experiments:
Assay in all cases: DTP human tumour cell line panel, 48 h
786-0 renal = test system: 786-0 renal
A549 NSCLC = test system: A549 NSCLC
BT-549 breast = test system: BT-549 breast
CCRF-CEM leukemia = test system: CCRF-CEM leukemia
HCC-2998 colon = test system: HCC-2998 colon
HCT-116 colon = test system: HCT-116 colon
HCT-15 colon = test system: HCT-15 colon
HOP-92 NSCLC = test system: HOP-92 NSCLC
HS 578T breast = test system: HS 578T breast
HT29 colon = test system: HT29 colon
MALME-3M melanoma = test system: MALME-3M melanoma
MCF7 breast = test system: MCF7 breast
MDA-MB-231 breast = test system: MDA-MB-231 breast
MOLT-4 leukemia = test system: MOLT-4 leukemia
NCI-H522 lung = test system: NCI-H522 lung
SF-268 CNS = test system: SF-268 CNS
SF-295 CNS = test system: SF-295 CNS
SK-MEL-2 melanoma = test system: SK-MEL-2 melanoma
U251 CNS = test system: U251 CNS

Row | Compound | TGI (786-0 renal) [µM] | TGI (A549 NSCLC) [µM] | TGI (BT-549 breast) [µM] | TGI (CCRF-CEM leukemia) [µM] | TGI (HCC-2998 colon) [µM] | TGI (HCT-116 colon) [µM] | TGI (HCT-15 colon) [µM] | TGI (HOP-92 NSCLC) [µM] | TGI (HS 578T breast) [µM] | TGI (HT29 colon) [µM] | TGI (MALME-3M melanoma) [µM] | TGI (MCF7 breast) [µM] | TGI (MDA-MB-231 breast) [µM] | TGI (MOLT-4 leukemia) [µM] | TGI (NCI-H522 lung) [µM] | TGI (SF-268 CNS) [µM] | TGI (SF-295 CNS) [µM] | TGI (SK-MEL-2 melanoma) [µM] | TGI (U251 CNS) [µM]
1 | Cc1nc(-c2cccnc2)sc1C(=O)CC(=O)C(=O)Nc1cccc(NC(=O)C(=O)CC(=O)c2sc(-c3cccnc3)nc2C)n1 | > 100 | > 100 | > 100 | > 100 | > 100 | > 100 | > 100 | > 100 | > 100 | > 100 | > 100 | > 100 | > 100 | > 100 | > 100 | > 100 | > 100 | > 100 | > 100
2 | COC(=O)c1ccc(Oc2nc3ccc(C(F)(F)F)cc3nc2-c2ccccc2)cc1 | > 100 | > 100 | > 100 | > 100 | > 100 | > 100 | > 100 | > 100 | > 100 | > 100 | > 100 | > 100 | > 100 | > 100 | > 100 | > 100 | > 100 |  | > 100
3 | COc1cc(/C=C2\N=C(c3ccccc3)N(c3nc4ccccc4s3)C2=O)cc(OC)c1OC | 69.3 | > 100 | 59.4 |  | > 100 | > 100 | > 100 | 74.5 | > 100 | > 100 |  | > 100 | > 100 | 46.6 | 35.8 | > 100 | > 100 | > 100 | > 100
4 | CN1/C(=C\N=O)C(C)(C)N(O)C1(C)C | > 100 | > 100 | > 100 | > 100 | > 100 | > 100 | > 100 | > 100 | > 100 | > 100 | > 100 | > 100 | > 100 | > 100 | > 100 | > 100 | > 100 | > 100 | > 100
5 | C[C@H](CCC(=O)O)[C@H]1CC[C@H]2[C@@H]3[C@H](O)[C@H](O)[C@@H]4C[C@H](O)CC[C@]4(C)[C@H]3CC[C@]12C | > 100 | > 100 | > 100 | > 100 | > 100 | > 100 | > 100 | > 100 | > 100 | > 100 | > 100 | > 100 | > 100 | > 100 | > 100 | > 100 |  | > 100 | > 100
6 | Cn1c2ccccc2c2c3c(c4c5ccccc5n(C)c4c21)C(=O)N(Cc1ccccc1)C3=O | > 100 | > 100 | > 100 | > 100 | > 100 | > 100 | > 100 | > 100 | > 100 | > 100 | > 100 | > 100 | > 100 | > 100 | > 100 |  | > 100 | > 100 | > 100
7 | CCOc1cc2c(cc1O)C=C[C@@H]1[C@@H]2CC[C@]2(C)[C@@H](O)CC[C@@H]12 | > 43.4 | > 100 | > 100 | > 42.5 | 18.7 | 16 | 20.1 | > 100 | > 100 | 24.3 | 35.6 | > 75.8 | 28.9 | 73.1 | 7.3 | > 100 | 5.45 | 42 | > 38.3
8 | O=C1NCN(c2ccccc2)C12CCN(CCCN1CCN(CCOC(c3ccccc3)c3ccccc3)CC1)CC2 | 2.31 | 7.82 | 7.37 | 3.59 | 1.02 | 5.67 | 5.19 | 5.54 | 7.97 | 4.22 | 5.54 | 6.23 | 7.25 | 6.4 | 4.66 | 5.77 | 6.41 | 6.75 | 7.45
9 | COC(=O)[C@H](Cc1ccccc1)NC(=O)OCC1OC(n2cc(C)c(=O)[nH]c2=O)CC1N=[N+]=[N-] (stereo partly specified) | > 100 | > 100 | > 100 | > 100 | > 100 | > 100 | > 100 | > 100 | > 100 | > 100 | > 100 | > 100 | > 100 | > 100 | > 100 | > 100 | > 100 | > 100 | > 100
10 | C=CC(=C)CCC(Br)C(C)(C)Br (stereo unspecified) | > 100 | > 100 | > 100 | 50.8 | > 100 | > 100 | > 100 | > 100 | > 100 | > 100 | > 100 | > 100 | > 100 | 45.7 | 30.6 | > 100 | > 100 | > 100 | > 100
11 | COP(=O)(/C=C/C(NC(=O)C(Cl)(Cl)Cl)c1ccccc1)OC (stereo unspecified) | > 100 | > 100 | > 100 |  | > 100 | > 100 | > 100 | > 100 | > 100 | > 100 | > 100 | > 100 | > 100 | > 100 | > 100 | > 100 | > 100 | > 100 | > 100
12 | CCCCC1Nc2ccccc2-c2ccnc(Cl)c21 (stereo unspecified) | 45.2 | > 100 | 42.6 | 52.6 | 69.4 | 32.3 | 44.4 | 40.9 | 32.3 | 47.6 | 51 | > 100 | 43.8 | 50.9 | 29.6 | 89.2 | 47.7 | 35.8 | 50.1
13 | NC1=Nc2ccccc2Sc2nccn21 | 57.9 | > 100 | > 100 | 75.3 | 43 | > 100 | 59.7 | 40.8 | 79.1 | 65.1 | 34.6 | > 100 | 35.9 | 49.4 | 44.3 | 88.4 | 43.7 | > 100 | 96.2
